From US10681908B2, “Molecules having pesticidal utility, and intermediates, compositions, and processes, related thereto” (Dow AgroSciences LLC, priority 2016, dated 2020) come the findings set out here.

Where two headings read alike, the source gives them in different places.

Common to all, as to assay type: in vivo
Series [1] concerns Beet Armyworm (Spodoptera exigua, LAPHEG). The series is described as follows: Bioassay on Beet Armyworm (BAW), 128-well diet tray assay. The conditions noted are these: for mortality at 50 µg/cm2: 168 h, 50 μg/cm^2 on artificial diet, second instar larvae, five to seven days, 25° C., read-out: BAW % Control (or Mortality) rating. In a few lines:
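Artificial diet was surface-treated with 50 μg/cm^2 of compound in 90:10 acetone-water and dried; one to five second-instar larvae were placed per well, eight wells per treatment. Held at 25 °C, 14:10 light-dark, for five to seven days, then percent mortality per well was averaged.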

The subject of series [2] is Yellow Fever Mosquito (Aedes aegypti, AEDSAE). The conditions noted are these: about 1 day-old larvae, 3 days, room temperature, scored on mortality. The protocol:
Example C: Bioassays on Yellow Fever Mosqurro (Aedes aegypti, AEDSAE) (“YFM”)
Certain molecules disclosed in this document were tested against YFM using procedures described in the following paragraph. In the reporting of the results, the “GPA & YFM Rating Table” was used (See Table Section).
Master plates containing 400 μg of a molecule dissolved in 100 μL of dimethyl sulfoxide (DMSO) (equivalent to a 4000 ppm solution) are used. A master plate of assembled molecules contains 15 μL per well. To this plate, 135 μL of a 90:10 water:acetone mixture is added to each well. A robot (Biomek® NXP Laboratory Automation Workstation) is programmed to dispense 15 μL aspirations from the master plate into an empty 96-well shallow plate (“daughter” plate). There are 6 reps (“daughter” plates) created per master. The created daughter plates are then immediately infested with YFM larvae.
The day before plates are to be treated, mosquito eggs are placed in Millipore water containing liver powder to begin hatching (4 g. into 400 mL). After the daughter plates are created using the robot, they are infested with 220 μL of the liver powder/larval mosquito mixture (about 1 day-old larvae). After plates are infested with mosquito larvae, a non-evaporative lid is used to cover the plate to reduce drying. Plates are held at room temperature for 3 days prior to grading. After 3 days, each well is observed and scored based on mortality. The results are indicated in the table entitled “Table ABC: Biological Results” (See Table Section).

The subject of series [3] is Cabbage Looper (Trichoplusia ni, TRIPNI). The series is described as follows: Bioassay on Cabbage Looper (CL), 128-well diet tray assay. The conditions noted are these: for mortality at 50 µg/cm2: 168 h, 50 μg/cm^2 on artificial diet, second instar larvae, five to seven days, 25° C., read-out: CL % Control (or Mortality) rating. An outline of the steps:
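Diet-tray assay: 1–5 second-instar larvae per well on artificial diet surface-treated with 50 μg/cm^2 compound (90:10 acetone-water, dried), eight wells per compound. Held at 25° C., 14:10 light-dark for five to seven days; percent mortality per well averaged across the eight wells.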

With `C[C@H](CS(=O)(=O)CC(F)(F)F)NC(=O)c1ccc(/C(F)=C/C(c2cc(Cl)cc(Cl)c2)C(F)(F)F)cc1C(F)(F)F` (stereo partly drawn) [F17, 4-((Z)-3-(3,5-dichlorophenyl)-1,4,4,4-tetrafluorobut-1-en-1-yl)-N—((R)-1-((2,2,2-trifluoroethyl)sulfonyl)propan-2-yl)-2-(trifluoromethyl)benzamide], the mortality at 50 µg/cm2 in series [1] and in series [3] was 50 to 100% each time. Besides, in series [2], the “YFM % Control (or Mortality) rating” value is listed as “A (80-100)”.

On to `C[C@H](CS(=O)(=O)CC(F)(F)F)NC(=O)c1ccc(/C(F)=C/C(c2ccc(Cl)c(Cl)c2)C(F)(F)F)cc1C(F)(F)F` (stereo partly drawn) [F18, 4-((Z)-3-(3,4-Dichlorophenyl)-1,4,4,4-tetrafluorobut-1-en-1-yl)-N—((R)-1-((2,2,2-trifluoroethyl)sulfonyl)propan-2-yl)-2-(trifluoromethyl)benzamide], for which the mortality at 50 µg/cm2 in series [1] and in series [3] was 50 to 100% throughout. For the same compound, the “YFM % Control (or Mortality) rating” value in series [2] was “A (80-100)”.

As for `CCS(=O)(=O)C[C@@H](C)NC(=O)c1ccc(/C(F)=C/C(c2cc(Br)c(Cl)c(Br)c2)C(F)(F)F)cc1C(F)(F)F` (stereo partly drawn) [F56, 4-((Z)-3-(3,5-Dibromo-4-chlorophenyl)-1,4,4,4-tetrafluorobut-1-en-1-yl)-N—((R)-1-(ethylsulfonyl)propan-2-yl)-2-(trifluoromethyl)benzamide], the “YFM % Control (or Mortality) rating” value in series [2] was “A (80-100)”.

`C[C@H](CS(=O)(=O)CC(F)(F)F)NC(=O)c1ccc(/C(F)=C/C(c2ccc(Cl)c(OC(F)(F)F)c2)C(F)(F)F)cc1C(F)(F)F` (stereo partly drawn) [F127, 4-((Z)-3-(4-Chloro-3-(trifluoromethoxy)phenyl)-1,4,4,4-tetrafluorobut-1-en-1-yl)-N—((R)-1-((2,2,2-trifluoroethyl)sulfonyl)propan-2-yl)-2-(trifluoromethyl)benzamide]: the mortality at 50 µg/cm2 in series [1] and in series [3] was 50 to 100% in each case.

`C[C@H](CSCCC#N)NC(=O)c1ccc(/C(F)=C/C(c2cc(Cl)c(Cl)c(Cl)c2)C(F)(F)F)cc1C(F)(F)F` (stereo partly drawn) [F128, N—((R)-1-((2-Cyanoethyl)thio)propan-2-yl)-4-((Z)-1,4,4,4-tetrafluoro-3-(3,4,5-trichlorophenyl)but-1-en-1-yl)-2-(trifluoromethyl)benzamide]: the mortality at 50 µg/cm2 in series [1] and in series [3] was 50 to 100% throughout.

With `C[C@H](CS(=O)(=O)CC(F)F)NC(=O)c1ccc(/C(F)=C/C(c2cc(Cl)c(Cl)c(Cl)c2)C(F)(F)F)cc1C(F)(F)F` (stereo partly drawn) [F129, N—((R)-1-((2,2-difluoroethyl)sulfonyl)propan-2-yl)-4-((Z)-1,4,4,4-tetrafluoro-3-(3,4,5-trichlorophenyl)but-1-en-1-yl)-2-(trifluoromethyl)benzamide], the mortality at 50 µg/cm2 in series [1] and in series [3] was 50 to 100% in each case.

`Cc1c(C(/C=C(\F)c2ccc(C(=O)N[C@H](C)CS(=O)(=O)CC(F)(F)F)c(C(F)(F)F)c2)C(F)(F)F)ccc(Cl)c1Cl` (stereo partly drawn) [F132, 4-((Z)-3-(3,4-Dichloro-2-methylphenyl)-1,4,4,4-tetrafluorobut-1-en-1-yl)-N—((R)-1-((2,2,2-trifluoroethyl)sulfonyl)propan-2-yl)-2-(trifluoromethyl)benzamide]: the mortality at 50 µg/cm2 in series [1] and in series [3] was 50 to 100% throughout.

Take `C[C@H](CS(=O)(=O)CC(F)(F)F)NC(=O)c1ccc(/C(F)=C/C(c2cc(F)c(F)c(F)c2)C(F)(F)F)cc1C(F)(F)F` (stereo partly drawn) [F133, 4-((Z)-1,4,4,4-Tetrafluoro-3-(3,4,5-trifluorophenyl)but-1-en-1-yl)-N—((R)-1-((2,2,2-trifluoroethyl)sulfonyl)propan-2-yl)-2-(trifluoromethyl)benzamide]: the mortality at 50 µg/cm2 in series [1] and in series [3] was 50 to 100% each time.

For `C[C@H](CS(=O)(=O)CC(F)(F)F)NC(=O)c1ccc(/C(F)=C/[C@@H](c2cc(Cl)c(Cl)c(Cl)c2)C(F)(F)F)cc1C(F)(F)F` [F136, 4-((S,Z)-1,4,4,4-tetrafluoro-3-(3,4,5-trichlorophenyl)but-1-en-1-yl)-N—((R)-1-((2,2,2-trifluoroethyl)sulfonyl)propan-2-yl)-2-(trifluoromethyl)benzamide], the mortality at 50 µg/cm2 in series [1] and in series [3] was 50 to 100% throughout.

With `C[C@H](CSCCC(F)(F)F)NC(=O)c1ccc(/C(F)=C/C(c2cc(Cl)c(Cl)c(Cl)c2)C(F)(F)F)cc1C(F)(F)F` (stereo partly drawn) [F137, 4-((Z)-1,4,4,4-Tetrafluoro-3-(3,4,5-trichlorophenyl)but-1-en-1-yl)-2-(trifluoromethyl)-N—((R)-1-((3,3,3-trifluoropropyl)thio)propan-2-yl)benzamide], the mortality at 50 µg/cm2 in series [1] and in series [3] was 50 to 100% throughout.

As for `O=C(NCC[S+]([O-])CCF)c1ccc(/C(F)=C/C(c2cc(Cl)c(Cl)c(Cl)c2)C(F)(F)F)cc1C(F)(F)F` (stereo not drawn) [F138, (Z)—N-(2-((2-Fluoroethyl)sulfinyl)ethyl)-4-(1,4,4,4-tetrafluoro-3-(3,4,5-trichlorophenyl)but-1-en-1-yl)-2-(trifluoromethyl)benzamide], the mortality at 50 µg/cm2 in series [1] and in series [3] was 50 to 100% throughout.

Turning to `C[C@H](CS(=O)(=O)CC(F)(F)F)NC(=O)c1ccc(/C(F)=C/C(c2cc(Cl)c(Cl)c(Cl)c2)C(C)(F)F)cc1` (stereo partly drawn) [FC1, 4-((Z)-1,4,4-Trifluoro-3-(3,4,5-trichlorophenyl)pent-1-en-1-yl)-N—((R)-1-((2,2,2-trifluoroethyl)sulfonyl)propan-2-yl)benzamide], the mortality at 0.05 µg/cm2 in series [1] (0.05 μg/cm^2, read-out: BAW Percent control (or mortality)) stood at 0%; in series [3] (0.05 μg/cm^2, read-out: CL Percent control (or mortality)) it was 0%. Besides, the mortality at 0.5 µg/cm2 in series [1] (0.5 μg/cm^2, read-out: BAW Percent control (or mortality)) stood at 20%; in series [3] (0.5 μg/cm^2, read-out: CL Percent control (or mortality)), 81%. Besides, the mortality at 5 µg/cm2 in series [1] (5 μg/cm^2, read-out: BAW Percent control (or mortality)) came to 100%; in series [3] (5 μg/cm^2, read-out: CL Percent control (or mortality)), 100%.

Turning to `C[C@H](CSCC(F)(F)F)NC(=O)c1ccc(/C(F)=C/C(c2cc(Cl)c(Cl)c(Cl)c2)C(C)(F)F)cc1` (stereo partly drawn) [FC2, 4-((Z)-1,4,4-Trifluoro-3-(3,4,5-trichlorophenyl)pent-1-en-1-yl)-N—((R)-1-((2,2,2-trifluoroethyl)thio)propan-2-yl)benzamide], the mortality at 0.05 µg/cm2 in series [1] (0.05 μg/cm^2, Table CD2 comparative data, read-out: Percent control (or mortality) BAW) is 0%; in series [3] (0.05 μg/cm^2, Table CD2 comparative data, read-out: Percent control (or mortality) CL), 0%. Moreover, the mortality at 0.5 µg/cm2 worked out at 20% in series [1] (0.5 μg/cm^2, Table CD2 comparative data, read-out: Percent control (or mortality) BAW) and 0% in series [3] (0.5 μg/cm^2, Table CD2 comparative data, read-out: Percent control (or mortality) CL). Also, the mortality at 5 µg/cm2 turned out to be 100% in series [1] (5 μg/cm^2, Table CD2 comparative data, read-out: Percent control (or mortality) BAW) and 100% in series [3] (5 μg/cm^2, Table CD2 comparative data, read-out: Percent control (or mortality) CL).

Take `C[C@H](CS(=O)(=O)CC(F)(F)F)NC(=O)c1ccc(/C(F)=C/C(c2ccc(Cl)c(F)c2)C(F)(F)F)cc1C(F)(F)F` (stereo partly drawn) [PF4, 4-((Z)-3-(4-Chloro-3-fluorophenyl)-1,4,4,4-tetrafluorobut-1-en-1-yl)-N—((R)-1-((2,2,2-trifluoroethyl)sulfonyl)propan-2-yl)-2-(trifluoromethyl)benzamide]: the mortality at 50 µg/cm2 in series [1] and in series [3] was 50 to 100% throughout.

On to `Cc1cc(C(/C=C(\F)c2ccc(C(=O)N[C@H](C)CS(=O)(=O)CC(F)(F)F)c(C(F)(F)F)c2)C(F)(F)F)ccc1Cl` (stereo partly drawn) [PF8, 4-((Z)-3-(4-Chloro-3-methylphenyl)-1,4,4,4-tetrafluorobut-1-en-1-yl)-N—((R)-1-((2,2,2-trifluoroethyl)sulfonyl)propan-2-yl)-2-(trifluoromethyl)benzamide], for which the mortality at 50 µg/cm2 in series [1] and in series [3] was 50 to 100% in each case.
